# Results as given in patent US20100316529A1, “Anti-Microbial Systems and Methods” (priority 2001, published 2010).
# Where “and” joins values, the source holds several entries; their conditions need not be identical. Equal entries are not always repeated.
# Legend:
# Assay type in all cases: cell-based
# Steno. maltophilia = experiment: EDTA salt dilution test, MIC/MBC
# C. lucitaniae = experiment: EDTA agar dilution method, yeasts, MIC/MBC; details: Exhibit C
# From the text: (§1) Protocol 3: Agar dilutions.
# Do this until all the media is used up.
# Cornyeform amycolatum = experiment: EDTA salt dilution test, MIC/MBC
# Kleb. ornitholytica = experiment: EDTA salt dilution test, MIC/MBC
# Ent. cloacae = experiment: EDTA salt dilution test, MIC/MBC; details: three entries, Exhibit A1
# C. guilliermondii = experiment: EDTA agar dilution method, yeasts, MIC/MBC; details: Exhibit C
# Procedure: (§2) The bactericidal effects were measured as the Minimum Bactericidal Concentration (MBC), while the inhibitory effects were measured as the Minimum Inhibitory Concentration (MIC). In each case, the concentration was measured as milligrams of the disinfectant salt per milliliter of water (mg/ml).
# as §1
# (§3) Prepare nutrient agar plates with increasing concentrations of EDTA, 0, 0.5, 1, 1.5, 2, 4, 6, 8, 10, 15, 20, 25, 30 mg/mL, using the following method. • Pour 300 mL distilled water into a sterile glass bottle. • Add the appropriate amount of EDTA. This is the concentration desired ×300, in grams. • Once the EDTA has fully dissolved, add 8.4 g of Nutrient agar powder (Oxoid). Mix thoroughly. • Do this for each concentration of EDTA required. […] Do this until all the media is used up. Label the plates with the concentration of EDTA they contain. • These plates can then be stored, until they are needed, in a 4° C. fridge. • Use an automatic plate inoculator to inoculate each plate with 21 organisms.
# C. parapsilosis = experiment: EDTA agar dilution method, yeasts, MIC/MBC; details: Exhibit C
# Procedure: as §2, §1, §3
# C. glabrata = experiment: EDTA agar dilution method, yeasts, MIC/MBC; details: two entries, Exhibit C
# Procedure: as §2, §1, §3
# C. albicans = experiment: EDTA agar dilution method, yeasts, MIC/MBC; details: three entries, Exhibit C
# Procedure: as §2, §1, §3
# C. tropicalis = experiment: EDTA agar dilution method, yeasts, MIC/MBC; details: Exhibit C
# Procedure: as §2, §1, §3
# Acinetobacter baumanii = experiment: EDTA salt dilution test, MIC/MBC; details: two entries, Exhibit A2
# Kleb. oxytoca = experiment: EDTA salt dilution test, MIC/MBC
# variety of microbes = experiment: Efficacy of disinfectant salts of EDTA against a number of microbes; details: general statement
# Procedure: The Applicant has tested the efficacy of a number of disinfectant salts of EDTA against a number of microbes.
# (§4) Protocol one: Broth dilutions:
# (§5) Inoculate a 25 ml nutrient broth (Oxoid No2) in a sterile universal container with one of the following organisms; Pseudomonas aeruginosa, Proteus Mirabilis, E. coli, Klebsiella pneumoniae, Staph aureus, Coagulase negative staphylococci, Enterococcus faecalis or MRSA.
# (§6) Incubate the broth at 37° C. overnight.
# Next day make up a series of nutrient broths containing a dilution of the appropriate EDTA as in the following list; 0 mg/mL, 0.25 mg/mL, 0.5 mg/mL, 1.0 mg/mL, 1.5 mg/mL, 2.0 mg/mL, 4.0 mg/mL, 6.0 mg/mL, 8.0 mg/mL, 10 mg/mL, 15 mg/mL, 20 mg/mL, 25 mg/mL, 30 mg/ml, 40 mg/mL, 50 mg/mL, 60 mg/mL, 70 mg/mL, 80 mg/mL, 90 mg/mL, 100 mg/mL.
# (§7) To make these concentrations put the EDTA needed for 10 mLs in only 9 mLs of broth in sterile universal containers, as this will be diluted further when the organisms are added.
# (§8) Dilute the overnight broth cultures to 10^7 organisms/mL using more sterile nutrient broth.
# (§9) Add 1 mL of this diluent to each of the EDTA series broths. This gives a final concentration of 10^6 organism/mL in the EDTA broths.
# (§10) Incubate for 18 hours at 37° C.
# Next day visually read the MIC's by observing the turbidity of the broths. […]
# (§11) Next day read the MBC's by performing colony counts.
# Ent. faeculm = experiment: EDTA salt dilution test, MIC/MBC
# Proteus vulgaris = experiment: EDTA salt dilution test, MIC/MBC
# VRE = experiment: EDTA salt dilution test, MIC/MBC; details: two entries
# Procedure: as §4, §5, §6, §7, §8, §9, §10
# (§12) Next day visually read the MIC's by observing the turbidity of the broths.
# (§13) Plate out 1 uL of each dilution onto fresh blood agar plate and spread using a sterile plastic spreader.
# (§14) Incubate overnight at 37° C.
# as §11
# MRSA = experiment: EDTA salt dilution test, MIC/MBC; details: five entries, Exhibit A2
# Procedure: as §4, §5, §6, §7, §8, §9, §10, §12, §13, §14, §11
# Kleb. pnemoniae = experiment: EDTA salt dilution test, MIC/MBC; details: two entries, Exhibit A1
# Procedure: as §4, §5, §6, §7, §8, §9, §10, §12, §13, §14, §11
# S. epidermidis = experiment: EDTA salt dilution test, MIC/MBC; details: two entries
# Procedure: as §4, §5, §6, §7, §8, §9, §10, §12, §13, §14, §11
# S. lentus = experiment: EDTA salt dilution test, MIC/MBC
# Procedure: as §4, §5, §6, §7, §8, §9, §10, §12, §13, §14, §11
# S. aureus = experiment: EDTA salt dilution test, MIC/MBC; details: five entries, Exhibit A2
# Procedure: as §4, §5, §6, §7, §8, §9, §10, §12, §13, §14, §11
# Pseudomonas aeruginosa = experiment: EDTA salt dilution test, MIC/MBC; details: two entries
# Procedure: as §4, §5, §6, §7, §8, §9, §10, §12, §13, §14, §11
# E. coli = experiment: EDTA salt dilution test, MIC/MBC; details: three entries, Exhibit A1
# Procedure: as §4, §5, §6, §7, §8, §9, §10, §12, §13, §14, §11
# S. xylosus = experiment: EDTA salt dilution test, MIC/MBC
# Procedure: as §4, §5, §6, §7, §8, §9, §10, §12, §13, §14, §11
# Proteus mirabilis = experiment: EDTA salt dilution test, MIC/MBC; details: two entries
# Procedure: as §4, §5, §6, §7, §8, §9, §10, §12, §13, §14, §11
# S. simulans = experiment: EDTA salt dilution test, MIC/MBC
# Procedure: as §4, §5, §6, §7, §8, §9, §10, §12, §13, §14, §11
# Ent. faecalis = experiment: EDTA salt dilution test, MIC/MBC
# Procedure: as §4, §5, §6, §7, §8, §9, §10, §12, §13, §14, §11
# S. capitis = experiment: EDTA salt dilution test, MIC/MBC; details: two entries
# Procedure: as §4, §5, §6, §7, §8, §9, §10, §12, §13, §14, §11
# Pseudomonas sp. = experiment: EDTA salt dilution test, MIC/MBC
# Procedure: as §4, §5, §6, §7, §8, §9, §10, §12, §13, §14, §11
# Coryneform strait/amy = experiment: EDTA salt dilution test, MIC/MBC
smiles,measurement,setting,value
N.N.O=C(O)CN(CCN(CC(=O)O)CC(=O)O)CC(=O)O [Diammonium EDTA],"MBC, minimum concentration required to kill an entire population",Steno. maltophilia; Exhibit A1,>10000 mg/L
same,"MIC, minimum concentration required to inhibit growth",Steno. maltophilia; Exhibit A2,1000 mg/L
same,"MIC's, Minimum Inhibitory Concentration",C. lucitaniae,500 mg/L
same,"MBC, minimum concentration required to kill an entire population",Cornyeform amycolatum; Exhibit A1,1000 mg/L
same,"MIC, minimum concentration required to inhibit growth",Cornyeform amycolatum; Exhibit A2,<500 mg/L
same,"MBC, minimum concentration required to kill an entire population",Kleb. ornitholytica; Exhibit A1,>10000 mg/L
same,"MIC, minimum concentration required to inhibit growth",Kleb. ornitholytica; Exhibit A2,1000 mg/L
same,"MBC, minimum concentration required to kill an entire population",Ent. cloacae,>10000 mg/L
same,"MIC's, Minimum Inhibitory Concentration",C. guilliermondii,500 mg/L
same,"MIC's, Minimum Inhibitory Concentration",C. parapsilosis,500 mg/L
same,"MIC's, Minimum Inhibitory Concentration",C. glabrata,500 mg/L
same,"MIC's, Minimum Inhibitory Concentration",C. albicans,500 mg/L
same,"MIC's, Minimum Inhibitory Concentration",C. tropicalis,1000 mg/L
same,"MIC, minimum concentration required to inhibit growth",Acinetobacter baumanii,<500 mg/L
same,"MBC, minimum concentration required to kill an entire population",Kleb. oxytoca; Exhibit A1,>10000 mg/L
same,"MIC, minimum concentration required to inhibit growth",Kleb. oxytoca; Exhibit A2,1000 mg/L
same,anti-microbial (antifungal and antibacterial) properties compared with the disodium salt,variety of microbes,superior to disodium EDTA
same,"MIC, minimum concentration required to inhibit growth","Ent. faeculm; Ent. faecuim, Exhibit A2",<500 mg/L
same,"MBC, minimum concentration required to kill an entire population","Ent. faeculm; Ent. faeculm, Exhibit A1",15000 mg/L
same,"MBC, minimum concentration required to kill an entire population",Proteus vulgaris; Exhibit A1,>10000 mg/L
same,"MIC, minimum concentration required to inhibit growth",Proteus vulgaris; Exhibit A2,<500 mg/L
same,"MBC, minimum concentration required to kill an entire population",VRE; Exhibit A1,15000 mg/L and >15000 mg/L
same,"MIC, minimum concentration required to inhibit growth",VRE; Exhibit A2,<500 mg/L and 1000 mg/L
same,"MIC, minimum concentration required to inhibit growth",MRSA,1000 mg/L
same,"MBC, minimum concentration required to kill an entire population",Kleb. pnemoniae,>10000 mg/L
same,"MBC, minimum concentration required to kill an entire population",S. epidermidis; Exhibit A1,4000 mg/L and 8000 mg/L
same,"MIC, minimum concentration required to inhibit growth",S. epidermidis; Exhibit A2,<500 mg/L
same,"MBC, minimum concentration required to kill an entire population",S. lentus; Exhibit A1,10000 mg/L
same,"MIC, minimum concentration required to inhibit growth",S. lentus; Exhibit A2,<500 mg/L
same,"MIC, minimum concentration required to inhibit growth",S. aureus,1000 mg/L
same,"MBC, minimum concentration required to kill an entire population",Pseudomonas aeruginosa; Exhibit A1,>10000 mg/L
same,"MIC, minimum concentration required to inhibit growth",Pseudomonas aeruginosa; Exhibit A2,1000 mg/L
same,"MBC, minimum concentration required to kill an entire population",E. coli,>10000 mg/L
same,"MBC, minimum concentration required to kill an entire population",S. xylosus; Exhibit A1,4000 mg/L
same,"MIC, minimum concentration required to inhibit growth",S. xylosus; Exhibit A2,<500 mg/L
same,"MBC, minimum concentration required to kill an entire population",Proteus mirabilis; Exhibit A1,>10000 mg/L
same,"MIC, minimum concentration required to inhibit growth",Proteus mirabilis; Exhibit A2,<500 mg/L
same,"MBC, minimum concentration required to kill an entire population",S. simulans; Exhibit A1,10000 mg/L
same,"MIC, minimum concentration required to inhibit growth",S. simulans; Exhibit A2,<500 mg/L
same,"MBC, minimum concentration required to kill an entire population",Ent. faecalis; Exhibit A1,15000 mg/L
same,"MIC, minimum concentration required to inhibit growth",Ent. faecalis; Exhibit A2,1000 mg/L
same,"MBC, minimum concentration required to kill an entire population",S. capitis; Exhibit A1,10000 mg/L and 8000 mg/L
same,"MIC, minimum concentration required to inhibit growth",S. capitis; Exhibit A2,<500 mg/L
same,"MBC, minimum concentration required to kill an entire population",Pseudomonas sp.; Exhibit A1,>10000 mg/L
same,"MIC, minimum concentration required to inhibit growth",Pseudomonas sp.; Exhibit A2,<500 mg/L
same,"MBC, minimum concentration required to kill an entire population",Coryneform strait/amy; Exhibit A1,1000 mg/L
same,"MIC, minimum concentration required to inhibit growth",Coryneform strait/amy; Exhibit A2,<500 mg/L
